Measurements as given in patent publication US20220306640A1, “HYDANTOIN DERIVATIVE” (ONO PHARMACEUTICAL CO., LTD., priority 2019, published 2022).

Target: T1, DDR1 phosphorylation in kidney (Mus musculus, UniProt Q03146)
T1 construct: from tissue; host or cells: kidney of C57BL/6J mice (UUO model)
T1 sequence (Q03146 20-911): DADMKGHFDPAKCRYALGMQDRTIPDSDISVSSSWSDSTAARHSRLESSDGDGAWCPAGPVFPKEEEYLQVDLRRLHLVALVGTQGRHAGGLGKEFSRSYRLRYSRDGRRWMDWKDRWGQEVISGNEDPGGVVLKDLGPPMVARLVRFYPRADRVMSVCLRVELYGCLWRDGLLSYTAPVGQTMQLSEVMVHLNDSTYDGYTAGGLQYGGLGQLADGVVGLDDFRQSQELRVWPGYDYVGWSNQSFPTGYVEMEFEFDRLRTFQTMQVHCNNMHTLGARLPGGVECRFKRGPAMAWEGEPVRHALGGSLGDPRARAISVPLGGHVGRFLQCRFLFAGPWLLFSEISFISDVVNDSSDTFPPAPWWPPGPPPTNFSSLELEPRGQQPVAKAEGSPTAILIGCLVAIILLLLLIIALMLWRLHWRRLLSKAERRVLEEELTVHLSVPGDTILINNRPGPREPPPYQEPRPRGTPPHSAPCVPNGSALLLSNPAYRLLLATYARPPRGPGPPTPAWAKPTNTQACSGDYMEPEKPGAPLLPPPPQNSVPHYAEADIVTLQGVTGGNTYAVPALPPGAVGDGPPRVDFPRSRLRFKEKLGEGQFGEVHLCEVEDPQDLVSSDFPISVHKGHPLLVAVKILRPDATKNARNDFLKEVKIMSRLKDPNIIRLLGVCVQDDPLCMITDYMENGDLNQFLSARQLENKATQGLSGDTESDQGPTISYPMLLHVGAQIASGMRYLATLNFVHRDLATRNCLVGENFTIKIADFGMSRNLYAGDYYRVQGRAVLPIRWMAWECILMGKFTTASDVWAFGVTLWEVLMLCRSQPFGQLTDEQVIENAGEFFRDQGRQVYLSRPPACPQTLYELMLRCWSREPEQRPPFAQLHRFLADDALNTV
Assay: Measurement of DDR1 phosphorylation suppression rate by using UUO (unilateral ureteral obstruction) model (in vivo test)
Parameters: species or system C57BL/6J mice
Conditions: UUO mice, dose of 10 mg/kg, oral single dose, kidney 8 h after dosing, relative to the difference between the untreated group and control group
Description: Biological Example 4: Measurement of DDR1 phosphorylation suppression rate by using UUO (unilateral ureteral obstruction) model (in vivo test).
Species & Strain: C57BL/6J mice
Mice were randomly assigned to respective groups based on the animal's body weight.
Surgery was performed in male C57BL/6J mice on Day 0. With the mice under anesthesia, operation area was disinfected with 75% alcohol after shaving. Mice in UUO group were exposed left ureter through a small incision on the left side of the abdomen and ligated with 3-0 silk at two locations about 0.5 cm below the renal hilum. Normal control mice were had their ureters manipulated but not ligated. Zoletil combined with Xylazine (20:1, v:v) were used in this study, the final dose of Zoletil was 25 mg/kg.
Route: oral administration
Dosage: 1, 3 and 10 mg/kg
Body weights of all animals were measured prior surgery and prior dosing. Clinical observations of all animals were monitored and recorded daily throughout the study. […]
On Day 3, all animals were euthanized with carbon dioxide. […] Then the samples were analyzed by Elisa.
DDR1 and p-DDR1 levels in ipsilateral kidney samples were analyzed by Elisa method. […]
All statistical tests were conducted, and the level of significance was set at 5% or P<0.05. The group means and standard deviation were calculated for all measurement parameters as study designed. […]

DDR1 phosphorylation suppression: 50%
SMILES: Cc1cc(Oc2ccnc(N)n2)ccc1N1C(=O)CN(c2ccc(F)c(OC(F)(F)F)c2)C1=O [Example 3(110), 3-{4-[(2-amino-4-pyrimidinyl)oxy]-2-methylphenyl}-1-[4-fluoro-3-(trifluoromethoxy)phenyl]-2,4-imidazolidinedione]
